Source: the supplement of paper PMC10307832

Tests used:
Experiment in all cases: relative viability (nuclei count vs DMSO), 5 days (fraction); higher = more cells survive
[1] = compound: CN1CCC(CC1)OC2=CC(=C(C=C2)NC3=NC=C4C(=N3)N(C(=O)N4C)C5CCCC5)OC [AZ3146] + Nc1nc2[nH]cc(CCc3ccc(C(=O)N[C@@H](CCC(=O)O)C(=O)O)cc3)c2c(=O)[nH]1 [Pemetrexed] (partner 0.2 µM)
Outline: (§1)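 Nuclei were stained with Hoechst during a one-step fixation (final 0.05% Triton X-100, 1% formaldehyde, 1 ug/ml Hoechst) carried out 5 days after dosing, then counted on 4× images. The cells, lung cancer lines in 1536-well plates, had been dosed by pin tool the day after seeding with one drug alone or a fixed anchor-drug dose plus five library-drug doses (not always all listed) in √10 steps. Relative viability is the nuclei count in treated wells divided by that in vehicle wells, and each value is the median of duplicate plates.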

[2] = compound: CCOC(=O)CCNc1cc(N2CCc3ccccc3CC2)nc(-c2ccccn2)n1 [GSK-J4] + CC(=O)c1c(C)c2cnc(Nc3ccc(N4CCNCC4)cn3)nc2n(C2CCCC2)c1=O [Palbociclib] (partner 0.5 µM)
Outline: as §1

[3] = compound: CN1CCC(CC1)OC2=CC(=C(C=C2)NC3=NC=C4C(=N3)N(C(=O)N4C)C5CCCC5)OC [AZ3146] + Cc1nc(Nc2ncc(C(=O)Nc3c(C)cccc3Cl)s2)cc(N2CCN(CCO)CC2)n1 [Dasatinib] (partner 0.075 µM)
Outline: as §1

[4] = compound: CN1CCC(CC1)OC2=CC(=C(C=C2)NC3=NC=C4C(=N3)N(C(=O)N4C)C5CCCC5)OC [AZ3146] + COc1cc2c(Oc3ccc(NC(=O)C4(C(=O)Nc5ccc(F)cc5)CC4)cc3F)ccnc2cc1OCCCN1CCOCC1 [Foretinib] (partner 0.25 µM)
Outline: as §1

For UMC-11, the relative viability ([1]; first compound 0.08 µM) was 0.643, the relative viability ([1]; first compound 0.253 µM) was 0.819 and the relative viability ([1]; first compound 0.8 µM) was 0.782. For the same cell line, the relative viability ([1]; first compound 2.53 µM) was 0.775, the relative viability ([1]; first compound 8 µM) was 0.43 and the relative viability ([2]; first compound 0.5 µM) was 0.367. For the same cell line, the relative viability ([2]; first compound 1.581 µM) was 0.288, the relative viability ([2]; first compound 15.81 µM) was 0.35 and the relative viability ([2]; first compound 50 µM) was 0.241. The relative viability ([3]; first compound 0.08 µM) was 0.426, the relative viability ([3]; first compound 0.253 µM) was 0.562 and the relative viability ([3]; first compound 0.8 µM) was 0.463. The relative viability ([3]; first compound 2.53 µM) was 0.452, the relative viability ([3]; first compound 8 µM) was 0.257 and the relative viability ([4]; first compound 0.08 µM) was 0.959. The relative viability ([4]; first compound 0.253 µM) was 1.04, the relative viability ([4]; first compound 0.8 µM) was 1.11 and the relative viability ([4]; first compound 2.53 µM) was 0.813. The relative viability ([4]; first compound 8 µM) was 0.261.
